# Measured values from patent publication US20130217702A1 (Richter Gedeon Nyrt., priority 2010, published 2013).
# pIC50, pKi: −log10 of the molar value.
# Columns and labels:
# [1] = target: T1, recombinant human B1 receptors (Homo sapiens, UniProt P46663); test: Functional assay: antagonist potency by cytosolic calcium measurement (plate reader fluorimeter) in CHO-B1 cells, agonist LysDABK; assay type: cell-based; details: CHO-B1 cells, inhibition of LysDABK (EC80)-evoked [Ca2+]i elevation; read-out: B1 func.
# T1 construct: host or cells: CHO (CHO-B1)
# T1 sequence (P46663 1-353): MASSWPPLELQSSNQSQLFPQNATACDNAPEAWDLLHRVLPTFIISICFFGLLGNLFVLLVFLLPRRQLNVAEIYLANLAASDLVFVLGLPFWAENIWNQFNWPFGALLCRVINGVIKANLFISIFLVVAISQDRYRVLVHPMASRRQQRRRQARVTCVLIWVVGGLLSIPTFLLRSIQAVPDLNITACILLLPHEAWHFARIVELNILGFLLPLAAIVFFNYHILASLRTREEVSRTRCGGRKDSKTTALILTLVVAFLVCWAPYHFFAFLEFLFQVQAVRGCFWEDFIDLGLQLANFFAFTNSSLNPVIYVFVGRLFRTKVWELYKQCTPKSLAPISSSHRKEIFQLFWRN
# Method in brief: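 IC50 is the concentration giving half-maximal inhibition of the LysDABK (EC80) calcium response, fitted from at least three experiments. CHO cells stably expressing human B1 were dye-loaded, exposed to compound for 20-25 min, then read by fluo-4 fluorescence (ΔF/F) at 37 °C.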
# [2] = target: T2, human recombinant bradykinin B1 receptor (Homo sapiens, UniProt P46663); test: Human recombinant bradykinin B1 receptor competitive radioligand binding; details: hB1 expressed in CHO cells, [3H]-[Des-Arg10] Kallidin radioligand; read-out: B1 binding
# T2 construct: host or cells: CHO cells, clone hB1-A5
# T2 sequence (P46663 1-353): T1 sequence (P46663 1-353)
# Method in brief: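 Competition radioligand binding on CHO-expressed hB1 membranes, using [3,4-prolyl-3,4-^3H(N)]-[Des-Arg^10] Kallidin as tracer, 15 min at 25° C. Excess Lys-des-Arg^9-Bradykinin (10 μM) set nonspecific binding. Sigmoidal fits of at least seven concentrations gave IC50, converted to Ki via Cheng-Prusoff; KD from Scatchard.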
SMILES,pIC50 [1],pKi [2]
"Cc1nc(-c2c(Cl)c3ccccc3n2-c2ccc(CNC(=O)C3(NC(=O)C(F)(F)F)CC3)cc2)no1 [Example 23, 1-(2,2,2-Trifluoro-acetylamino)-cyclopropanecarboxylic acid 4-[3-chloro-2-(5-methyl-[1,2,4]oxadiazol-3-yl)-indol-1-yl]-benzylamide]",> 7.70,> 7.70
"Cc1nc(-c2c(Cl)c3cc(Cl)ccc3n2-c2ccc(CNC(=O)C3(NC(=O)c4cc(C5CC5)on4)CC3)cc2)no1 [Example 75, 5-Cyclopropyl-isoxazole-3-carboxylic acid (1-{4-[3,5-dichloro-2-(5-methyl-[1,2,4]oxadiazol-3-yl)-indol-1-yl]-benzylcarbamoyl}-cyclopropyl)-amide]",> 7.70,> 7.70
"Cn1nnc(-c2c(Cl)c3ccccc3n2-c2ccc(CNC(=O)C3(NC(=O)C(F)(F)F)CC3)cc2)n1 [Example 1, 1-(2,2,2-Trifluoro-acetylamino)-cyclopropanecarboxylic acid 4-[3-chloro-2-(2-methyl-2H-tetrazol-5-yl)-indol-1-yl]-benzylamide]",> 7.70,> 7.70
"Cc1nnc(-c2c(Cl)c3ccccc3n2-c2ccc(CNC(=O)C3(NC(=O)c4cnc5ccccc5c4)CC3)cc2)o1 [Example 182, Quinoline-3-carboxylic acid (1-{4-[3-chloro-2-(5-methyl-[1,3,4]oxadiazol-2-yl)-indol-1-yl]-benzylcarbamoyl}-cyclopropyl)-amide]",> 7.70,> 7.70
"COc1cc(C(=O)NC2(C(=O)NCc3ccc(-n4c(-c5cnco5)c(Cl)c5ccccc54)cc3)CC2)on1 [Example 16, 3-Methoxy-isoxazole-5-carboxylic acid (1-{4-[3-chloro-2-(1,3-oxazol-5-yl)-indol-1-yl]-benzylcarbamoyl}-cyclopropyl)-amide]",> 7.70,> 7.70
"Cn1nnc(-c2c(Cl)c3ccccc3n2-c2ccc(CNC(=O)C3(NC(=O)CC(F)(F)F)CC3)cc2)n1 [Example 29, 1-(3,3,3,-Trifluoro-propionylamino)-cyclopropanecarboxylic acid 4-[3-chloro-2-(2-methyl-2H-tetrazol-5-yl)-indol-1-yl]-benzylamide]",> 7.70,> 7.70
"Cc1nc(-c2c(Cl)c3ccccc3n2-c2ccc(CNC(=O)C3(NC(=O)c4cccnc4)CC3)cc2)no1 [Example 158, N-(1-{4-[3-Chloro-2-(5-methyl-[1,2,4]oxadiazol-3-yl)-indol-1-yl]-benzylcarbamoyl}-cyclopropyl)-nicotinamide]",> 7.70,> 7.70
"Cc1nc(-c2cc3cc(F)ccc3n2-c2ccc(CNC(=O)C3(NC(=O)c4cncc(C(F)(F)F)c4)CC3)cc2)no1 [Example 46, N-(1-{4-[5-Fluoro-2-(5-methyl-[1,2,4]oxadiazol-3-yl)-indol-1-yl]-benzylcarbamoyl}-cyclopropyl)-5-trifluoromethyl-nicotinamide]",> 7.70,> 7.70
"Cc1noc(-c2cc3ccccc3n2-c2ccc(CNC(=O)C3(NC(=O)c4cncc(C(F)(F)F)c4)CC3)cc2)n1 [Example 83, N-(1-{4-[2-(3-Methyl-[1,2,4]oxadiazol-5-yl)-indol-1-yl]-benzylcarbamoyl}-cyclopropyl)-5-trifluoromethyl-nicotinamide]",> 7.70,> 7.70
"Cc1nc(-c2c(Cl)c3ccccc3n2-c2ccc(CNC(=O)C3(NC(=O)c4ccnc(F)c4)CC3)cc2)no1 [Example 164, N-(1-{4-[3-Chloro-2-(5-methyl-[1,2,4]oxadiazol-3-yl)-indol-1-yl]-benzylcarbamoyl}-cyclopropyl)-2-fluoro-isonicotinamide]",> 7.70,> 7.70
"CCCc1cc(C(=O)NC2(C(=O)NCc3ccc(-n4c(-c5noc(C)n5)c(Cl)c5ccccc54)cc3)CC2)on1 [Example 42, 3-Propyl-isoxazole-5-carboxylic acid (1-{4-[3-chloro-2-(5-methyl-[1,2,4]oxadiazol-3-yl)-indol-1-yl]-benzylcarbamoyl}-cyclopropyl)-amide]",> 7.70,> 7.70
"Cc1nc(-c2c(Cl)c3ccccc3n2-c2ccc(CNC(=O)C3(NC(=O)c4ccco4)CC3)cc2)no1 [Example 145, Furan-2-carboxylic acid (1-{4-[3-chloro-2-(5-methyl-[1,2,4]oxadiazol-3-yl)-indol-1-yl]-benzylcarbamoyl}-cyclopropyl)-amide]",7.00 to 7.70,7.00 to 7.70
"COc1cc(C(=O)NC2(C(=O)NCc3ccc(-n4c(-c5nnc(C)o5)c(Cl)c5ccccc54)cc3)CC2)on1 [Example 5, 3-Methoxy-N-[1-({4-[3-chloro-2-(5-methyl-1,3,4-oxadiazol-2-yl)-1H-indol-1-yl]benzyl}carbamoyl)cyclopropyl]isoxazole-5-carboxamide]",> 7.70,> 7.70
"Cc1nc(-c2c(Cl)c3ccccc3n2-c2ccc(CNC(=O)C3(NC(=O)c4ccoc4)CC3)cc2)no1 [Example 137, Furan-3-carboxylic acid (1-{4-[3-chloro-2-(5-methyl-[1,2,4]oxadiazol-3-yl)-indol-1-yl]-benzylcarbamoyl}-cyclopropyl)-amide]",> 7.70,> 7.70
"Cc1cnc(C(=O)NC2(C(=O)NCc3ccc(-n4c(-c5nnn(C)n5)c(Cl)c5ccccc54)cc3)CC2)cn1 [Example 25, 5-Methyl-pyrazine-2-carboxylic acid (1-{4-[3-chloro-2-(2-methyl-2H-tetrazol-5-yl)-indol-1-yl]-benzylcarbamoyl}-cyclopropyl)-amide]",7.00 to 7.70,> 7.70
"COc1cc(C(=O)NC2(C(=O)NCc3ccc(-n4c(-c5noc(C)n5)cc5cc(F)ccc54)cc3F)CC2)on1 [Example 133, 3-Methoxy-isoxazole-5-carboxylic acid (1-{2-fluoro-4-[5-fluoro-2-(5-methyl-[1,2,4]oxadiazol-3-yl)-indol-1-yl]-benzylcarbamoyl}-cyclopropyl)-amide]",> 7.70,> 7.70
"Cc1nc(-c2c(Cl)c3ccccc3n2-c2ccc(CNC(=O)C3(NC(=O)c4cc(C5CC5)on4)CC3)c(F)c2)no1 [Example 110, 5-Cyclopropyl-isoxazole-3-carboxylic acid (1-{4-[3-chloro-2-(5-methyl-[1,2,4]oxadiazol-3-yl)-indol-1-yl]-2-fluoro-benzylcarbamoyl}-cyclopropyl)-amide]",> 7.70,> 7.70
"COc1cc(C(=O)NC2(C(=O)NCc3ccc(-n4c(-c5noc(C)n5)c(F)c5cc(F)ccc54)cc3)CC2)on1 [Example 198, 3-Methoxy-isoxazole-5-carboxylic acid (1-{4-[3,5-difluoro-2-(5-methyl-[1,2,4]oxadiazol-3-yl)-indol-1-yl]-benzylcarbamoyl}-cyclopropyl)-amide]",> 7.70,> 7.70
Cn1nnc(-c2c(Cl)c3cc(F)ccc3n2-c2ccc(CNC(=O)C3(NC(=O)C(F)(F)F)CC3)c(F)c2)n1 [Example 19],> 7.70,> 7.70
"NC(=O)c1c(Cl)c2ccccc2n1-c1ccc(CNC(=O)C2(NC(=O)C(F)(F)F)CC2)cc1 [Example 187, 3-Chloro-1-[4-({[1-(2,2,2-trifluoro-acetylamino)-cyclopropanecarbonyl]-amino}-methyl)-phenyl]-1H-indole-2-carboxylic acid amide]",7.00 to 7.70,6.30 to 7.00
